Among the data in patent publication US20260274892A1, “MACROCYCLIC BROAD SPECTRUM ANTIBIOTICS” (RQx Pharmaceuticals, Inc., priority 2017, published 2026) are MIC values, retold here.

Assay [1] relates to Methicillin Resistant Staphylococcus aureus strain USA 200. The assay can be described thus: Minimum inhibitory concentration (MIC), CLSI broth micro-dilution, S. aureus. It is filed as cell-based. The settings on record: Staphylococcus aureus, MRSA / USA200; Table 6; MRSA USA 200; cation adjusted Mueller Hinton Broth + 0.002% Tween-80; 35° C., 22 hours. The procedure, abridged:
(§1)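 Antibacterial potency is measured as MIC by the CLSI broth dilution method. Bacteria at OD600 0.0005 in Tween-80-supplemented cation-adjusted Mueller Hinton broth face ten twofold compound dilutions for 22 h at 35° C.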

Assay [2] relates to Escherichia coli ATCC 25922. As to the kind of experiment: Minimum inhibitory concentration (MIC), CLSI broth micro-dilution, E. coli. The settings on record: Escherichia coli, ATCC25922, 22 h, Table 6, cation adjusted Mueller Hinton Broth + 0.002% Tween-80, 35° C. The assay is classed as cell-based. In outline:
as §1

Turning to `Cc1nc(-c2ccc(C(C)(C)C)cc2)ncc1C(=O)N[C@@H](CCN)C(=O)N(C)[C@@H]1C(=O)N[C@@H](C)C(=O)N[C@H](C(=O)NCC#N)Cc2ccc(OC[C@H](C)N)c(c2)-c2cc1ccc2OC[C@H](C)N` (racemic) [Compound 438, rac-(8S,11S,14S)-N-(cyanomethyl)-11-methyl-14-[methyl-[rac-(2S)-4-amino-2-[[2-(4-tert-butylphenyl)-4-methyl-pyrimidine-5-carbonyl]amino]butanoyl]amino]-10,13-dioxo-3,18-bis[rac-(2S)-2-aminopropoxy]-9,12-diazatricyclo[13.3.1.12,6]icosa-1(18),2(20),3,5,15(19),16-hexaene-8-carboxamide], the MIC in assay [1] amounted to 0.012 µM; in assay [2], 0.16 µM.
For the compound `CCCCCCCCc1ccc(C(=O)N[C@@H](CC(=O)NC)C(=O)N(C)[C@@H]2C(=O)N[C@@H](C)C(=O)N[C@H](C(=O)NCC#N)Cc3ccc(OCCN)c(c3)-c3cc2ccc3OCCN)c(C)c1` (racemic) [Compound 443, rac-(2S)-N,N′-dimethyl-2-[(2-methyl-4-octyl-benzoyl)amino]-N-[rac-(7S,10S,13S)-3,18-bis(2-aminoethoxy)-13-(cyanomethylcarbamoyl)-10-methyl-8,11-dioxo-9,12-diazatricyclo[13.3.1.12,6]icosa-1(19),2,4,6(20),15,17-hexaen-7-yl]butanediamide], the MIC was determined as 0.27 µM in assay [1] and 4.2 µM in assay [2].
As to `CCCCCCCCc1ccc(C(=O)N[C@@H](CCC(=O)N(C)C)C(=O)N(C)[C@@H]2C(=O)N[C@@H](C)C(=O)N[C@H](C(=O)NCC#N)Cc3ccc(OCCN)c(c3)-c3cc2ccc3OCCN)c(C)c1` (racemic) [Compound 444, rac-(2S)-N,N′,N′-trimethyl-2-[(2-methyl-4-octyl-benzoyl)amino]-N-[rac-(7S,10S,13S)-3,18-bis(2-aminoethoxy)-13-(cyanomethylcarbamoyl)-10-methyl-8,11-dioxo-9,12-diazatricyclo[13.3.1.12,6]icosa-1(19),2,4,6(20),15,17-hexaen-7-yl]pentanediamide], the MIC was found to be 0.064 µM in assay [1] and 4.1 µM in assay [2].
The corresponding values for `CCCCCCCCc1ccc(C(=O)N[C@@H](CCC(=O)NCC)C(=O)N(C)[C@@H]2C(=O)N[C@@H](C)C(=O)N[C@H](C(=O)NCC#N)Cc3ccc(OCCN)c(c3)-c3cc2ccc3OCCN)c(C)c1` (racemic) [Compound 445, rac-(2S)-N′-ethyl-N-methyl-2-[(2-methyl-4-octyl-benzoyl)amino]-N-[rac-(7S,10S,13S)-3,18-bis(2-aminoethoxy)-13-(cyanomethylcarbamoyl)-10-methyl-8,11-dioxo-9,12-diazatricyclo[13.3.1.12,6]icosa-1(19),2,4,6(20),15,17-hexaen-7-yl]pentanediamide] are 0.13 µM and 4.1 µM.
In the case of `CCCCCCCCc1ccc(C(=O)N[C@@H](CCC(=O)NCCO)C(=O)N(C)[C@@H]2C(=O)N[C@@H](C)C(=O)N[C@H](C(=O)NCC#N)Cc3ccc(OCCN)c(c3)-c3cc2ccc3OCCN)c(C)c1` (racemic) [Compound 446, rac-(2S)-N′-(2-hydroxyethyl)-N-methyl-2-[(2-methyl-4-octyl-benzoyl)amino]-N-[rac-(7S,10S,13S)-3,18-bis(2-aminoethoxy)-13-(cyanomethylcarbamoyl)-10-methyl-8,11-dioxo-9,12-diazatricyclo[13.3.1.12,6]icosa-1(19),2,4,6(20),15,17-hexaen-7-yl]pentanediamide], the MIC in assay [1] came to 0.032 µM; in assay [2], 4.1 µM.
The corresponding values for `CCCCCCCCc1ccc(C(=O)N[C@@H](CCC(=O)NC2COC2)C(=O)N(C)[C@@H]2C(=O)N[C@@H](C)C(=O)N[C@H](C(=O)NCC#N)Cc3ccc(OCCN)c(c3)-c3cc2ccc3OCCN)c(C)c1` (racemic) [Compound 447, rac-(2S)-N-methyl-2-[(2-methyl-4-octyl-benzoyl)amino]-N′-(oxetan-3-yl)-N-[rac-(7S,10S,13S)-3,18-bis(2-aminoethoxy)-13-(cyanomethylcarbamoyl)-10-methyl-8,11-dioxo-9,12-diazatricyclo[13.3.1.12,6]icosa-1(19),2,4,6(20),15,17-hexaen-7-yl]pentanediamide] are 0.033 µM and 4.2 µM.
As for `CCCCCCCCc1ccc(C(=O)N[C@@H](CCC(=O)NC(CO)CO)C(=O)N(C)[C@@H]2C(=O)N[C@@H](C)C(=O)N[C@H](C(=O)NCC#N)Cc3ccc(OCCN)c(c3)-c3cc2ccc3OCCN)c(C)c1` (racemic) [Compound 448, rac-(2S)-N′-[2-hydroxy-1-(hydroxymethyl)ethyl]-N-methyl-2-[(2-methyl-4-octyl-benzoyl)amino]-N-[rac-(7S,10S,13S)-3,18-bis(2-aminoethoxy)-13-(cyanomethylcarbamoyl)-10-methyl-8,11-dioxo-9,12-diazatricyclo[13.3.1.12,6]icosa-1(19),2,4,6(20),15,17-hexaen-7-yl]pentanediamide], the MIC in assay [1] stood at 0.13 µM; in assay [2] it was 4.1 µM.
Turning to `CCCCCc1ccc(-c2ncc(C(=O)N[C@@H](CCNC(N)=O)C(=O)N(C)[C@@H]3C(=O)N[C@@H](C)C(=O)N[C@H](C(=O)NCC#N)Cc4ccc(OCCN)c(c4)-c4cc3ccc4OCCN)c(C)n2)cc1` (racemic) [Compound 451, rac-(8S,11S,14S)-3,18-bis(2-aminoethoxy)-N-(cyanomethyl)-11-methyl-14-[methyl-[rac-(2S)-2-[[4-methyl-2-(4-pentylphenyl)pyrimidine-5-carbonyl]amino]-4-ureido-butanoyl]amino]-10,13-dioxo-9,12-diazatricyclo[13.3.1.12,6]icosa-1(18),2(20),3,5,15(19),16-hexaene-8-carboxamide], the MIC in assay [1] was 0.047 µM; in assay [2], 0.76 µM.
Consider `Cc1nc(-c2ccc(C(C)(C)C)cc2)ncc1C(=O)N[C@@H](CCNC(N)=O)C(=O)N(C)[C@@H]1C(=O)N[C@@H](C)C(=O)N[C@H](C(=O)NCC#N)Cc2ccc(OCCN)c(c2)-c2cc1ccc2OCCN` (racemic) [Compound 452, rac-(8S,11S,14S)-3,18-bis(2-aminoethoxy)-N-(cyanomethyl)-11-methyl-14-[methyl-[rac-(2S)-2-[[2-(4-tert-butylphenyl)-4-methyl-pyrimidine-5-carbonyl]amino]-4-ureido-butanoyl]amino]-10,13-dioxo-9,12-diazatricyclo[13.3.1.12,6]icosa-1(18),2(20),3,5,15(19),16-hexaene-8-carboxamide], for which the MIC in assay [1] was 0.13 µM; in assay [2], 1.3 µM.
Turning to `CCCCCCCc1ccc(C(=O)N[C@@H](CNC)C(=O)N(C)[C@@H]2C(=O)N[C@@H](C)C(=O)N[C@H](C(=O)NCC#N)Cc3ccc(OCCN)c(c3)-c3cc2ccc3OCCN)c(C)c1` (racemic) [Compound 453, rac-(8S,11S,14S)-3,18-bis(2-aminoethoxy)-N-(cyanomethyl)-11-methyl-14-[methyl-[rac-(2S)-2-[(4-heptyl-2-methyl-benzoyl)amino]-3-(methylamino)propanoyl]amino]-10,13-dioxo-9,12-diazatricyclo[13.3.1.12,6]icosa-1(18),2(20),3,5,15(19),16-hexaene-8-carboxamide], the figures for the MIC in assay [1] and in assay [2] were 0.026 µM and 1.1 µM, respectively.
The corresponding values for `CCCCCCCc1ccc(C(=O)N[C@@H](CS)C(=O)N(C)[C@@H]2C(=O)N[C@@H](C)C(=O)N[C@H](C(=O)NCC#N)Cc3ccc(OCCN)c(c3)-c3cc2ccc3OCCN)c(C)c1` (racemic) [Compound 454, rac-(8S,11S,14S)-3,18-bis(2-aminoethoxy)-N-(cyanomethyl)-11-methyl-14-[methyl-[rac-(2R)-2-[(4-heptyl-2-methyl-benzoyl)amino]-3-sulfanyl-propanoyl]amino]-10,13-dioxo-9,12-diazatricyclo[13.3.1.12,6]icosa-1(18),2(20),3,5,15(19),16-hexaene-8-carboxamide] are 0.55 µM and 4.4 µM.
For the compound `CCCCCCCc1ccc(C(=O)N[C@H](CCN)C(=O)N(C)[C@@H]2C(=O)N[C@@H](C)C(=O)N[C@H](C(=O)NCC#N)Cc3ccc(OCCN)c(c3)-c3cc2ccc3OCCN)c(C)c1` (racemic) [Compound 456, rac-(8S,11S,14S)-3,18-bis(2-aminoethoxy)-N-(cyanomethyl)-11-methyl-14-[methyl-[rac-(2R)-4-amino-2-[(4-heptyl-2-methyl-benzoyl)amino]butanoyl]amino]-10,13-dioxo-9,12-diazatricyclo[13.3.1.12,6]icosa-1(18),2(20),3,5,15(19),16-hexaene-8-carboxamide], the MIC was 0.56 µM in assay [1] and 3.3 µM in assay [2].
The corresponding values for `Cc1nc(-c2ccc(C(C)(C)C)cc2)ncc1C(=O)N[C@@H](CN)C(=O)N(C)[C@@H]1C(=O)N[C@@H](C)C(=O)N[C@H](C(=O)NCC#N)Cc2ccc(OCCN)c(c2)-c2cc1ccc2OCCN` (racemic) [Compound 457, rac-(8S,11S,14S)-3,18-bis(2-aminoethoxy)-N-(cyanomethyl)-11-methyl-14-[methyl-[rac-(2S)-3-amino-2-[[2-(4-tert-butylphenyl)-4-methyl-pyrimidine-5-carbonyl]amino]propanoyl]amino]-10,13-dioxo-9,12-diazatricyclo[13.3.1.12,6]icosa-1(18),2(20),3,5,15(19),16-hexaene-8-carboxamide] are 0.025 µM and 0.27 µM.
For `Cc1nc(-c2ccc(CC(C)C)cc2)ncc1C(=O)N[C@@H](CCO)C(=O)N(C)[C@@H]1C(=O)N[C@@H](C)C(=O)N[C@H](C(=O)NCC#N)Cc2ccc(OCCN)c(c2)-c2cc1ccc2OCCN` (racemic) [Compound 458, rac-(8S,11S,14S)-3,18-bis(2-aminoethoxy)-N-(cyanomethyl)-11-methyl-14-[methyl-[rac-(2S)-4-hydroxy-2-[[2-(4-isobutylphenyl)-4-methyl-pyrimidine-5-carbonyl]amino]butanoyl]amino]-10,13-dioxo-9,12-diazatricyclo[13.3.1.12,6]icosa-1(18),2(20),3,5,15(19),16-hexaene-8-carboxamide], the MIC turned out to be 0.033 µM in assay [1] and 1.1 µM in assay [2].

A word on the MIC: it is the smallest concentration in the dilution series that meets the test's criterion for growth inhibition.
